“And” between values parts separate entries of the source, which are not always exact repeats. Equal entries are not always repeated.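 A five-concentration, 48-hour dose response in 96-well plates underlies each endpoint, interpolated linearly between surrounding concentrations. GI50 marks 50% less growth. TGI: concentration producing complete growth inhibition.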
Tests used:
Test in all cases: NCI tumour cell line growth inhibition, 48 h
SN12C renal = test system: SN12C renal
HOP-62 NSCLC = test system: HOP-62 NSCLC
TK-10 renal = test system: TK-10 renal
HCT-116 colon = test system: HCT-116 colon
SNB-75 CNS = test system: SNB-75 CNS
RPMI-8226 leukemia = test system: RPMI-8226 leukemia
OVCAR-8 ovarian = test system: OVCAR-8 ovarian
NCI-H23 lung = test system: NCI-H23 lung
SW-620 colon = test system: SW-620 colon
SF-268 CNS = test system: SF-268 CNS

Compound | TGI (SN12C renal) | TGI (HOP-62 NSCLC) | TGI (TK-10 renal) | TGI (HCT-116 colon) | TGI (SNB-75 CNS) | TGI (RPMI-8226 leukemia) | TGI (OVCAR-8 ovarian) | TGI (NCI-H23 lung) | TGI (SW-620 colon) | TGI (SF-268 CNS) | GI50 (SN12C renal) [µM] | GI50 (TK-10 renal) [µM] | GI50 (HCT-116 colon) [µM] | GI50 (SNB-75 CNS) [µM] | GI50 (RPMI-8226 leukemia) [µM] | GI50 (OVCAR-8 ovarian) [µM] | GI50 (NCI-H23 lung) [µM] | GI50 (SW-620 colon) [µM] | GI50 (SF-268 CNS) [µM] | GI50 (HOP-62 NSCLC) [µM]
c1ccc2c(c1)[nH]c1c2ncc2[nH]c3ccccc3c21 | 13.6 µM | 19.4 µM | 20.1 µM | 3.35 µM | 12.1 µM | 6.27 µM | 17.2 µM | 33.5 µM | 10.3 µM | 36.8 µM |  |  |  |  |  |  |  |  |  | 
COC(C)(C)[C@H](O)C(O)CC(C)[C@@H]1CCC23CC12CCC1[C@@]2(C)CCC(OC(C)=O)C(C)(C)C2CC(OC2OC(COC(C)=O)C(O)C(O)C2O)[C@]13C (stereo partly drawn) | 10.6 µM and 19.4 µM | 17.2 µM and 23.9 µM | 14.9 µM and 23.4 µM | 8.67 µM and 13.4 µM | 11.3 µM and 17.1 µM | 6.54 µM and 17.1 µM | 14 µM and 20.7 µM | 16 µM and 25.2 µM | 13.7 µM and 15.3 µM | 12.4 µM and 21.3 µM | 6.29 | 10.7 | 4.78 | 4.32 | 3.77 | 6.13 | 11.3 | 4.67 | 6.87 | 
CCCCCC/C=C1\CCC(CN(C)C)C1=O (stereo not drawn) | 8.74 µM | 35.1 µM | 9.14 µM | 9.55 µM | 23.8 µM | 4.7 µM | 13.5 µM | 23.2 µM | 6.49 µM | 14.3 µM |  |  |  |  |  |  |  |  |  | 
Nc1nc(-c2ccccc2)cc(-c2ccc(Cl)cc2)c1-c1nc2ccccc2o1 | 20 µM | 37.8 µM | 27.1 µM | 20.2 µM | 26.3 µM | 19.8 µM | 61.2 µM | > 100 µM | 29.3 µM | 27.7 µM | 7.56 | 11.3 | 7.41 | 12.9 | 4.82 | 18.7 | 23.5 | 14.9 | 10.9 | 22.4
CCOCCOC[C@H]1CCCN(c2ccnc3sc(C(N)=O)c(N)c23)C1 | > 100 µM | > 100 µM | > 100 µM | > 100 µM | > 100 µM | > 100 µM | > 100 µM | > 100 µM | > 100 µM | > 100 µM | 29.8 | > 100 | 14.4 | 63.9 | 1.65 | 25.1 | 10.6 | > 100 | 56.4 | > 100
N#CSc1ccc(S(N)(=O)=O)cc1 | > 100 µM | > 100 µM | > 100 µM | > 100 µM | > 100 µM | 61.5 µM | > 100 µM | > 100 µM | 98.9 µM | > 100 µM |  |  |  |  |  |  |  |  |  | 
O=S(=O)(Nc1ccccn1)c1ccc(N=Nc2ccc(O)c3ncccc23)cc1 | > 29.8 µM | 8.88 µM | 7.31 µM | 22.6 µM | 3.33 µM | 27.7 µM |  | 16 µM | 25.5 µM | 50.7 µM | 1.02 | 2.82 | 0.888 | 0.675 | 0.748 | 0.715 | 2.34 | 0.952 | 1.12 | 1.14
Cc1ccc(C2=NN(c3ccc(S(N)(=O)=O)cc3)C(c3cn(-c4ccccc4)nc3-c3ccccc3)C2)cc1 (stereo not drawn) | 5 µM | > 100 µM | > 100 µM | 42 µM | > 100 µM | > 100 µM | > 100 µM | > 100 µM | > 100 µM | > 100 µM | 2.23 | 71.2 | 3.07 | 80.5 | 6.35 | 7.53 | 14.1 | 9.82 | 25.7 | > 100
C[C@@H]1OCC2(CCN(c3cnc(Sc4ccnc(N)c4Cl)c(N)n3)CC2)[C@@H]1N | > 100 µM | > 100 µM | > 100 µM | > 100 µM | > 100 µM | > 100 µM | > 100 µM | > 100 µM | > 100 µM | > 100 µM | 27.7 | 0.253 | > 100 | 15.1 | 37.6 | > 89.5 | 1.34 | 88.7 | 27.7 | 14.2
CC(C)c1cccc(C(C)C)c1NC(=O)CCC(=O)NN | > 100 µM | > 100 µM | > 100 µM | > 100 µM | > 100 µM | > 100 µM | > 100 µM | > 100 µM | 42.9 µM | > 100 µM |  |  |  |  |  |  |  |  |  | 
COc1ccc2nc(-c3cc4c([nH]c5ccccc54)c(-c4ccc(F)c(F)c4)n3)[nH]c2c1 | 23.5 µM | 25.5 µM | 17.3 µM | 4.11 µM | 29.7 µM | 4.29 µM | 18.1 µM | 27.5 µM | 23.7 µM | 69.6 µM | 3.97 | 4.29 | 2.05 | 14.2 | 1.55 | 3.08 | 6.56 | 4.82 | 5.8 | 10.9
O=c1ccnc(SCc2ccc(Cl)cc2)[nH]1 | > 100 µM | > 100 µM | > 100 µM | > 100 µM | > 100 µM | > 100 µM | > 100 µM | > 100 µM | > 100 µM | > 100 µM |  |  |  |  |  |  |  |  |  | 
CCCN1C(=O)CNC(=O)c2[nH]cnc21 | > 100 µM | > 100 µM | > 100 µM | > 100 µM | > 100 µM | > 100 µM | > 100 µM | > 100 µM | > 100 µM | > 100 µM |  |  |  |  |  |  |  |  |  | 
Cn1c(=O)c2[nH]c(CCCCc3nc4c([nH]3)c(=O)n(C)c(=S)n4C)nc2n(C)c1=S | > 100 µM | > 100 µM | > 100 µM | > 100 µM | 53.1 µM | > 100 µM | > 100 µM | > 100 µM | > 100 µM | > 100 µM |  |  |  |  |  |  |  |  |  | 
Oc1c(CN2CCN(c3ccccc3F)CC2)cc(Br)c2cccnc12 | 20.5 µM | 14.2 µM | 29 µM | > 40.7 µM | > 100 µM | 15.6 µM | 14.5 µM | 25.2 µM | 20.2 µM | > 100 µM | 0.987 | 5.45 | 0.546 | 1.91 | 0.791 | 0.607 | 1.33 | 0.47 | 0.858 | 0.596
